Tested on: HeLa cells
Assay: Mitochondrial calcium elevation in histamine-stimulated HeLa cells (mitochondrially targeted aequorin luminescence)
Format: cell-based
Procedure: To test the effect of oleuropein (or oleuropein aglycone), quercetin and their combination in living cells, the inventors measured mitochondrial calcium elevation in HeLa cells. HeLa cells were purchased from ATCC. HeLa cells were seeded in 96-well plates at a density of 50000 cells per well in minimal essential medium (DMEM, Gibco), high glucose, +10% fetal calf serum.
Mitochondrial calcium measurements were carried out using Hela cells infected with the adenovirus (from Sirion biotech) expressing the mitochondrially targeted calcium sensor mitochondrial mutated aequorin (Montero et al., 2004). For aequorin reconstitution, 24 hours after infection, cells were incubated for 2 h at room temperature (22±° C.) in standard medium (145 mM NaCl, 5 mM KCl, 1 mM MgCl2, 1 mM CaCl2, 10 mM glucose and 10 mM Hepes, pH 7.4) with 1 μM wild-type coelenterazine.
For treatment, compounds were directly added to the cell culture or myotubes cultures 2 hours before measurements. Luminescence was measured at the FLIPR Tetra Aequorin (Molecular Devices). […] Calibration of the luminescence data into calcium concentration was carried out using an algorithm, as described previously (Alvarez & Montero, 2002). Custom module analysis based on Excel (Microsoft) and GhaphPad Prism 7.02 (GraphPad) software was used for quantification.

With `C/C=C1/C(O)OC=C(C(=O)OC)[C@H]1CC(=O)OCCc1ccc(O)c(O)c1` (mixture of isomers) [oleuropein aglycone] the “synergism with quercetin to activate mitochondria via mitochondrial Ca2+ rise (measured effect of the combination vs. theoretical sum of the single effects)” value (3 μM + 3 μM quercetin, integrated mitochondrial calcium rise evoked by 100 μM histamine, HeLa cells, compounds added 2 hours before measurement, P<0.05) was “synergizes with quercetin” and the “level of synergism in combination with quercetin, compared between oleuropein and oleuropein aglycone” value (synergisms calculated as in FIG. 1 and FIG. 2, n=6, NS at P<0.05 (Student's t-test)) was “same level of synergism”.

From patent US20240000745A1, “COMPOSITIONS AND METHODS USING A COMBINATION OF OLEUROPEIN AND QUERCETIN FOR CELLULAR ENERGY” (SOCIETE DES PRODUITS NESTLE S.A., priority 2020, published 2024)
